Laboratory results from ChEMBL document CHEMBL4368936, “Discovery and structure-activity relationship study of phthalimide-phenylpyridine conjugate as inhibitor of Wnt pathway” (Bioorg Med Chem Lett, 2019).

Assays:
[1] = species on record: Mus musculus; experiment: Inhibition of Wnt/beta-catenin pathway in mouse L Wnt3A cells at 10 uM after 48 hrs by TOP-flash dual reporter gene assay relative to control; assay type: cell-based
[2] = Inhibition of Wnt/beta-catenin pathway in mouse L Wnt3A cells after 48 hrs by TOP-flash dual reporter gene assay; assay type: cell-based; settings: L Wnt-3A

| Structure (SMILES) | inhibition [1] [%] | IC50 [2] [nM] |
| --- | --- | --- |
| O=C(CCCN1C(=O)c2ccc(C#Cc3ccccc3)cc2C1=O)Nc1ccc(-c2ccccc2)cn1 | 7 | – |
| Cc1cccc2c1C(=O)N(C(C)C(=O)Nc1ccc(-c3ccccc3)cn1)C2=O (stereo not given) | 39 | > 10000 |
| O=C(CCCN1C(=O)c2c(F)ccc(F)c2C1=O)Nc1ccc(-c2ccccc2)cn1 | 37 | – |
| Cc1cc(-c2ncc(CC(=O)Nc3ccc(-c4cnccn4)cn3)cc2C)ccn1 [WNT-974] | 93 | 0.57 |
| Cc1ccc2c(c1)C(=O)N(CCCC(=O)Nc1ccc(-c3ccccc3)cn1)C2=O | 20 | – |
| Cc1cccc2c1C(=O)N(CCC(=O)Nc1ccc(-c3ccccc3)cn1)C2=O | 29 | > 10000 |
| O=C(CCCN1C(=O)c2c(Cl)c(Cl)c(Cl)c(Cl)c2C1=O)Nc1ccc(-c2ccccc2)cn1 | -5 | – |
| O=C(CCCN1C(=O)c2ccc(Br)cc2C1=O)Nc1ccc(-c2ccccc2)cn1 | 18 | – |
| O=C(CCCN1C(=O)c2ccc(Cl)cc2C1=O)Nc1ccc(-c2ccccc2)cn1 | 22 | – |
| O=C(CCCN1C(=O)c2ccc(F)c(F)c2C1=O)Nc1ccc(-c2ccccc2)cn1 | 21 | – |
| O=C(CCCN1C(=O)c2cccc(F)c2C1=O)Nc1ccc(-c2ccccc2)cn1 | 44 | – |
| O=C(CCCN1C(=O)c2ccc(F)cc2C1=O)Nc1ccc(-c2ccccc2)cn1 | 20 | – |
| O=C(CCCN1C(=O)c2ccccc2C1=O)Nc1ccc(-c2ccccc2)cn1 | 34 | – |
| O=C(CCCN1C(=O)c2cc(Cl)c(Cl)cc2C1=O)Nc1ccc(-c2ccccc2)cn1 | -8 | – |
| CC(C)(C)c1ccc2c(c1)C(=O)N(CCCC(=O)Nc1ccc(-c3ccccc3)cn1)C2=O | 23 | – |
| Cc1cccc2c1C(=O)N(CCCC(=O)Nc1ccc(-c3ccccc3)cn1)C2=O | 61 | 2790 |
| O=C(CCCN1C(=O)c2cccc([N+](=O)[O-])c2C1=O)Nc1ccc(-c2ccccc2)cn1 | 17 | – |
| Cc1cccc2c1C(=O)N(CC(=O)Nc1ccc(-c3ccccc3)cn1)C2=O | 76 | 280 |
| O=C(CCCN1C(=O)c2cccc(Cl)c2C1=O)Nc1ccc(-c2ccccc2)cn1 | 46 | – |
| O=C(CCCN1C(=O)c2ccc([N+](=O)[O-])cc2C1=O)Nc1ccc(-c2ccccc2)cn1 | 19 | – |
